Source: US10328012B2, “Methods for treating skin” (AVON PRODUCTS, INC., priority 2015, dated 2019)
Entries after “also recorded” stand apart in the source; their conditions may differ.

How the values were obtained:
[1] = tested on: Human dermal fibroblast cells; assay: Pro-collagen I secreted by human dermal fibroblasts, HTRF human pro-collagen I kit (Example 1); format: cell-based; settings: 0.0001% phytol alone or 1 μM retinol alone for 16 days; decline after day 13 despite continuing treatment
Experimental: Human dermal fibroblast cells were grown in a 6-well plate in DMEM media (available from CORNING, N.Y.) supplemented with 10% Fetal Bovine Serum (FBS) and L-glutamine (1.5×10^5 cells/plate) overnight. After reaching about 75% confluence, cells were transferred into DMEM media without FBS and incubated for 4-6 hours. Next, the cells were treated with either 0.0001% phytol or 1 μM retinol. Treatment with either phytol alone, or retinol alone was performed in DMEM media without FBS for 16 days. For sequential treatments, the cells were treated with 0.0001% phytol for 6 days followed by 1 μM retinol for 10 days, or with 1 μM retinol for 6 days, followed by 0.0001% phytol for 10 days. Every other day, media were collected and cells were re-treated with phytol or retinol in the same fashion. After treatment, the amount of collagen secreted into the culture media was determined using the HTRF human pro-collagen I kit (available from CISBIO, Inc).

[2] = tested on: human dermal fibroblast (HDF) cells; assay: HA in human dermal fibroblasts, daily vs pulsed treatment (Example 17); format: cell-based; settings: 12 days; pulsed uses half as much active
Experimental: A series of experiments was conducted to assess the effects of different treatment regimens of active ingredients shown in Table 9 on the production of hyaluronic acid (HA) in human dermal fibroblast (HDF) cells. Two different treatment regimens were assessed: (1) active ingredient A applied to cells for 12 consecutive days; and (2) active ingredient applied to cells for 2 consecutive days followed by application of media not containing active ingredient for two consecutive days repeatedly until treatment is applied for 12 consecutive days. […] After reaching about 75% confluence, cells were transferred into DMEM media without FBS, and incubated for 4-6 hours. Different wells were assigned to one of treatment regimens (1)-(2) as described above, with six wells allocated to each treatment regimen. All active ingredients were prepared as emulsions and applied directly to the HDF cells. The specific active ingredients used in each of the two treatment regimens are provided below in Table 10. Following treatment, cells were collected and the amount of hyaluronic acid (HA) secreted from the cells was measured using a commercially available HA assay (available from […] Inc., CO).

SMILES	pro-collagen I production as a function of treatment time [1]	production of hyaluronic acid, pulsed treatment compared with daily treatment [2]
CC1=C(/C=C/C(C)=C/C=C/C(C)=C/CO)C(C)(C)CCC1 [Retinol, reference compound]	declines; also recorded: plateau in effectiveness over time	significantly more production of hyaluronic acid
C/C(=C\CO)CCC[C@H](C)CCC[C@H](C)CCCC(C)C [Phytol]	declines; also recorded: plateau in effectiveness over time	significantly more production of hyaluronic acid
O=C(O)CO [Glycolic Acid]		only slightly less effective
